Reference: ChEMBL document CHEMBL1144945, “Development of progesterone receptor antagonists from 1,2-dihydrochromeno[3,4-f]quinoline agonist pharmacophore” (Bioorg Med Chem Lett, 2003)
The source made the active and inactive calls.

Tests used:
Progesterone receptor [1] = target: T1, Progesterone receptor (Homo sapiens, UniProt P06401); test: Effective concentration for antagonistic activity towards human progesterone receptor in CV-1 cells; not active (<20% efficacy and/or >10 mM potency); assay type: functional, cell-based
T1 sequence (P06401 whole entry): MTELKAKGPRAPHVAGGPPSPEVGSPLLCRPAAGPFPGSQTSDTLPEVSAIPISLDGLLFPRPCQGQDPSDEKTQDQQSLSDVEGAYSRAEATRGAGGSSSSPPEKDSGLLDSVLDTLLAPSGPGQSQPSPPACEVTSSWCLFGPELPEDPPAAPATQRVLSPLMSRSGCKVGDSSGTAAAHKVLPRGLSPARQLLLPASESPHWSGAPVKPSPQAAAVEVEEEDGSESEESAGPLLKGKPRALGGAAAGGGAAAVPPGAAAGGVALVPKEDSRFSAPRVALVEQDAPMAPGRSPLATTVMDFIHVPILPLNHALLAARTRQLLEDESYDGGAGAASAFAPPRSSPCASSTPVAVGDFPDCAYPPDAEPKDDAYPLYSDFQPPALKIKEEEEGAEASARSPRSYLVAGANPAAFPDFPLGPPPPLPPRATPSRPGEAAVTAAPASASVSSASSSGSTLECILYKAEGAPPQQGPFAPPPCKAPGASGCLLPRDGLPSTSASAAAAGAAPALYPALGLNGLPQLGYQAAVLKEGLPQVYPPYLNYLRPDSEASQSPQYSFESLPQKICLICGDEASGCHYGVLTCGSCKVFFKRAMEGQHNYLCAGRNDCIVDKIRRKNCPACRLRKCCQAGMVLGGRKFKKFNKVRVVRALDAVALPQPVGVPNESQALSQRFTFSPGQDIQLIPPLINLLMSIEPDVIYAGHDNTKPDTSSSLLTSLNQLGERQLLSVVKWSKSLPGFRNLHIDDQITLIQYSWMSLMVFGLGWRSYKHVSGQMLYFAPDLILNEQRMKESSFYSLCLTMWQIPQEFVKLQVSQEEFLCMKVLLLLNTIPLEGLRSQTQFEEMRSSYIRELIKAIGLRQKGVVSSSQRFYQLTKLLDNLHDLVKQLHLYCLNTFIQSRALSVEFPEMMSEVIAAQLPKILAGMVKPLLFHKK

[2] = target: T2, Progesterone receptor (Homo sapiens) (UniProt P06401); test: Agonist efficacy for human progesterone receptor in T47D human breast cancer cell; not active (<20% efficacy and/or >10 mM potency); assay type: functional, cell-based
T2 sequence (whole entry): T1 sequence (P06401 whole entry)

Progesterone receptor [3] = target: T1, Progesterone receptor
Description: Binding affinity at human progesterone receptor.

Progesterone receptor [4] = target: T1, Progesterone receptor; test: Inhibition of human progesterone receptor in T47D human breast cancer cell; not active (<20% efficacy and/or >10 mM potency); assay type: cell-based
Progesterone receptor [5] = target: T1, Progesterone receptor; test: Effective concentration for human progesterone receptor in T47D human breast cancer cell; not active (<20% efficacy and/or >10 mM potency); settings: cancer cell lines
[6] = target: T2, Progesterone receptor (Homo sapiens); test: Antagonist efficacy for human progesterone receptor in CV-1 cells; not active (<20% efficacy and/or >10 mM potency); assay type: functional, cell-based
Progesterone receptor [7] = target: T1, Progesterone receptor; test: Binding towards human progesterone receptor; Not tested
Progesterone receptor [8] = target: T1, Progesterone receptor; remark: listed apart in the source
Description: Antagonistic activity at human progesterone receptor in CV-1 cells.

Progesterone receptor [9] = target: T1, Progesterone receptor; test: Effective concentration for human progesterone in T47D human breast cancer cell; not active (<20% efficacy and/or >10 mM potency); assay type: cell-based; settings: cancer cell lines
Progesterone receptor [10] = target: T1, Progesterone receptor; remark: listed apart in the source
Description: Inhibition of human progesterone receptor activation in T47D human breast cancer cell.

Row | EC50 (Progesterone receptor [1]) | Efficacy [2] | Ki (Progesterone receptor [3]) | IC50 (Progesterone receptor [4]) | EC50 (Progesterone receptor [5]) | Efficacy [6] | Ki (Progesterone receptor [7]) | EC50 (Progesterone receptor [8]) | EC50 (Progesterone receptor [9]) | IC50 (Progesterone receptor [10]) | SMILES
1 | Not Active | inactive | > 1000 nM | Not Active | Not Active | inactive |  |  |  |  | CC1=CC(C)(C)Nc2ccc3c(c21)COc1cc(C(F)(F)F)ccc1-3
2 |  |  |  |  |  |  | 290 nM | 576 nM |  |  | CC1=CC(C)(C)Nc2ccc3c(c21)COc1c-3cc(Br)c(C=O)c1F
3 |  | inactive |  |  |  |  |  | 576 nM | Not Active | 782 nM | CC1=CC(C)(C)Nc2ccc3c(c21)COc1c(Cl)cccc1-3
